Laboratory results from PubChem BioAssay (NCI).
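96-well plates; 48 h exposure; 5 concentrations. Endpoints by linear interpolation between flanking doses. Not reached: highest tested concentration assigned. The concentration for 50% growth inhibition is given as GI50. The concentration for full growth arrest is given as TGI.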

How the values were obtained:
Assay in all cases: inhibition of tumour cell growth, NCI panel, 48 h
[1] = system: NCI-H226 lung
[2] = system: CCRF-CEM leukemia
[3] = system: HL-60(TB) leukemia
[4] = system: HOP-62 NSCLC
[5] = system: SR leukemia
[6] = system: HS 578T breast
[7] = system: SK-MEL-2 melanoma
[8] = system: U251 CNS
[9] = system: OVCAR-8 ovarian
[10] = system: CAKI-1 renal
[11] = system: SK-OV-3 ovarian
[12] = system: NCI-H522 lung
[13] = system: SN12C renal
[14] = system: MDA-MB-231 breast
[15] = system: UACC-62 melanoma
[16] = system: UO-31 renal
[17] = system: SNB-19 CNS
[18] = system: SF-268 CNS
[19] = system: NCI-H23 lung
[20] = system: DU-145 prostate
[21] = system: HCC-2998 colon
[22] = system: RXF 393 renal
[23] = system: SF-295 CNS
[24] = system: T-47D breast
[25] = system: ACHN renal
[26] = system: HCT-15 colon
[27] = system: M14 melanoma
[28] = system: KM12 colon
[29] = system: SNB-75 CNS
[30] = system: A498 renal
[31] = system: OVCAR-3 ovarian
[32] = system: MDA-MB-435
[33] = system: RPMI-8226 leukemia
[34] = system: HOP-92 NSCLC
[35] = system: EKVX NSCLC
[36] = system: HCT-116 colon
[37] = system: 786-0 renal
[38] = system: BT-549 breast
[39] = system: SK-MEL-5 melanoma
[40] = system: OVCAR-5 ovarian
[41] = system: IGROV1 ovarian
[42] = system: MCF7 breast
[43] = system: SW-620 colon
[44] = system: MOLT-4 leukemia
[45] = system: COLO 205 colon
[46] = system: NCI-H460 lung
[47] = system: TK-10 renal
[48] = system: NCI/ADR-RES ovarian
[49] = system: A549 NSCLC
[50] = system: SF-539 CNS
[51] = system: OVCAR-4 ovarian
[52] = system: SK-MEL-28 melanoma
[53] = system: LOX IMVI melanoma
[54] = system: UACC-257 melanoma
[55] = system: HT29 colon
[56] = system: PC-3 prostate
[57] = system: MALME-3M melanoma
[58] = system: K-562 leukemia

Oc1c(Cl)c(Cl)c(Cl)c(Cl)c1Cl
TGI [1]: 56.9 µM
TGI [2]: 48.3 µM
TGI [3]: 36.9 µM

COc1ccc(C2=NN(C(C)=O)C(c3ccc(Oc4ccnc5cc(Cl)ccc45)c(OC)c3)C2)cc1 (stereo not drawn)
GI50 [4]: 3.37 µM
TGI [4]: 13.1 µM
GI50 [5]: > 100 µM
TGI [5]: > 100 µM
GI50 [6]: 5.15 µM
TGI [6]: > 100 µM
GI50 [7]: 7.13 µM
TGI [7]: 26.7 µM
GI50 [8]: 4.51 µM
TGI [8]: 38.4 µM
GI50 [9]: 3.63 µM
TGI [9]: > 100 µM
GI50 [10]: > 100 µM
TGI [10]: > 100 µM
GI50 [11]: 6.01 µM
TGI [11]: 42.9 µM
GI50 [12]: 7.57 µM
TGI [12]: > 100 µM
GI50 [13]: > 100 µM
TGI [13]: > 100 µM
GI50 [14]: 7.52 µM
TGI [14]: > 100 µM
GI50 [15]: 5.35 µM
TGI [15]: > 100 µM
GI50 [16]: > 100 µM
TGI [16]: > 100 µM
GI50 [2]: > 100 µM
TGI [2]: > 100 µM
GI50 [17]: 26.8 µM
TGI [17]: > 100 µM
GI50 [18]: 9.28 µM
TGI [18]: > 100 µM
GI50 [19]: 11.9 µM
TGI [19]: > 100 µM
GI50 [20]: > 100 µM
TGI [20]: > 100 µM
GI50 [21]: > 100 µM
TGI [21]: > 100 µM
GI50 [22]: 5.04 µM
TGI [22]: 41 µM
GI50 [23]: 5.02 µM
TGI [23]: 37.2 µM
GI50 [24]: 5.54 µM
TGI [24]: 34.9 µM
GI50 [25]: 4.03 µM
TGI [25]: > 100 µM
GI50 [26]: > 100 µM
TGI [26]: > 100 µM
GI50 [27]: 93 µM
TGI [27]: > 100 µM
GI50 [28]: > 100 µM
TGI [28]: > 100 µM
GI50 [29]: 1660 nM
TGI [29]: 6.16 µM
GI50 [30]: 15.2 µM
TGI [30]: 92.2 µM
GI50 [31]: 5.4 µM
TGI [31]: > 100 µM
GI50 [32]: > 100 µM
TGI [32]: > 100 µM
GI50 [3]: > 100 µM
TGI [3]: > 100 µM
GI50 [33]: > 100 µM
TGI [33]: > 100 µM
GI50 [34]: 3.03 µM
TGI [34]: 15.4 µM
GI50 [35]: 51.7 µM
TGI [35]: > 100 µM
GI50 [36]: 2610 nM
TGI [36]: > 100 µM
GI50 [37]: 4.52 µM
TGI [37]: 26.8 µM
GI50 [38]: 4 µM
TGI [38]: > 100 µM
GI50 [39]: > 100 µM
TGI [39]: > 100 µM
GI50 [40]: > 100 µM
TGI [40]: > 100 µM
GI50 [41]: 6.29 µM
TGI [41]: > 100 µM
GI50 [42]: 29.4 µM
TGI [42]: > 100 µM
GI50 [43]: > 100 µM
TGI [43]: > 100 µM
GI50 [44]: > 100 µM
TGI [44]: > 100 µM

CCOC(=O)C(NC(=O)c1cccc(Cl)c1)(Nc1ccc(S(=O)(=O)Nc2cc(C)nc(C)n2)cc1)C(F)(F)F (stereo not drawn)
TGI [4]: > 100 µM
TGI [45]: > 100 µM
TGI [5]: > 100 µM
TGI [6]: > 100 µM
TGI [7]: > 100 µM
TGI [1]: > 100 µM
TGI [46]: > 100 µM
TGI [8]: > 100 µM
TGI [9]: > 100 µM
TGI [10]: > 100 µM
TGI [11]: > 100 µM
TGI [47]: > 100 µM
TGI [12]: > 100 µM
TGI [13]: > 100 µM
TGI [14]: > 100 µM
TGI [16]: > 100 µM
TGI [2]: > 100 µM
TGI [17]: > 100 µM
TGI [48]: > 100 µM
TGI [18]: > 100 µM
TGI [19]: > 100 µM
TGI [20]: > 100 µM
TGI [21]: > 100 µM
TGI [49]: > 100 µM
TGI [50]: > 100 µM
TGI [23]: > 100 µM
TGI [24]: > 100 µM
TGI [25]: > 100 µM
TGI [51]: > 100 µM
TGI [26]: > 100 µM
TGI [27]: > 100 µM
TGI [28]: > 100 µM
TGI [29]: > 100 µM
TGI [30]: > 100 µM
TGI [31]: > 100 µM
TGI [32]: > 100 µM
TGI [52]: > 100 µM
TGI [3]: > 100 µM
TGI [33]: > 100 µM
TGI [34]: > 100 µM
TGI [35]: > 100 µM
TGI [36]: > 100 µM
TGI [53]: > 100 µM
TGI [54]: > 100 µM
TGI [55]: > 100 µM
TGI [37]: > 100 µM
TGI [56]: > 100 µM
TGI [39]: > 100 µM
TGI [57]: > 100 µM
TGI [40]: > 100 µM
TGI [41]: > 100 µM
TGI [42]: > 100 µM
TGI [43]: > 100 µM
TGI [44]: > 100 µM

N#Cc1sc2c(c1OC(=O)c1ccc(Cl)cc1Cl)c(=O)n(-c1ccccc1)c(=S)n2-c1ccccc1
TGI [4]: 96.4 µM
TGI [45]: 42.2 µM
TGI [5]: > 100 µM
TGI [6]: 89.6 µM
TGI [1]: 66.8 µM
TGI [46]: > 100 µM
TGI [8]: 75.8 µM
TGI [9]: > 100 µM
TGI [10]: 54.5 µM
TGI [11]: > 100 µM
TGI [47]: 92.5 µM
TGI [12]: 7.3 µM
TGI [13]: 57.8 µM
TGI [14]: 75.1 µM
TGI [15]: 40.4 µM
TGI [16]: 0.424 µM
TGI [2]: 26.7 µM
TGI [17]: 60.6 µM
TGI [48]: 50.3 µM
TGI [18]: > 100 µM
TGI [19]: 50.8 µM
TGI [20]: > 100 µM
TGI [21]: > 100 µM
TGI [49]: > 100 µM
TGI [22]: 42 µM
TGI [50]: 39.2 µM
TGI [23]: 81.2 µM
TGI [24]: > 100 µM
TGI [25]: > 100 µM
TGI [51]: 66.5 µM
TGI [26]: 59.5 µM
TGI [27]: 36.6 µM
TGI [28]: 89.7 µM
TGI [29]: > 100 µM
TGI [30]: 61.2 µM
TGI [31]: 76.3 µM
TGI [32]: 46.2 µM
TGI [52]: > 100 µM
TGI [3]: 46.7 µM
TGI [33]: 60 µM
TGI [58]: 68 µM
TGI [34]: 68.9 µM
TGI [35]: 65.1 µM
TGI [36]: 39.2 µM
TGI [53]: 39.8 µM
TGI [54]: > 100 µM
TGI [55]: 55 µM
TGI [37]: 77.3 µM
TGI [56]: > 100 µM
TGI [39]: 34.6 µM
TGI [40]: > 100 µM
TGI [41]: 38.6 µM
TGI [42]: 73.4 µM
TGI [43]: 72.7 µM
TGI [44]: 45.9 µM
